Source: US20240099304A1, “SYNERGISTIC HERBICIDAL COMPOSITIONS OF METAMIFOP” (Parijat Industries (India) Private Limited, priority 2021, published 2024)

Legend:
Type in all cases: in vivo
[1] = test system: Rottboellia cochinchinensis; assay: Field efficacy on grass weed in soybean, post-emergence foliar application
Experimental: (§1) As described in the Herbicide Handbook of the Weed Science Society of America, Ninth Edition, 2007, p. 429, “synergism” [is] an interaction of two or more factors such that the effect when combined is greater than the predicted effect based on the response to each factor applied separately. In the Colby method, the expected (or predicted) response of a combination of herbicides is calculated by taking the product of the observed response for each individual component of the combination when applied alone divided by 100 and subtracting this value from the sum of the observed response for each component while applied alone. An unexpected enhancement in efficacy of the combination is then determined by comparing the observed response of the combination to the expected (or predicted) response as calculated from the observed response of each individual component alone. If the observed response of the combination is greater than the expected (or predicted) response, or stated conversely, if the difference between the observed and expected response is greater than zero, then the combination is said to be synergistic or unexpectedly effective. (Colby, S. R., Weeds, 1967(15), p. 20-22). The Colby method required only a single dose of each herbicide applied alone and the mixture of both doses.
(§2) Synergy Study: The following formula was used to calculate the expected activity of mixtures containing active ingredients, A and B:
(§3) • A=Observed efficacy of active ingredient (combination of Metamifop and Imidazolinone herbicides) A at the same concentration as used in the mixture. • B=observed efficacy of active ingredient B at the same concentration as used in the mixture. However, following formula was used to calculate the expected activity of mixtures containing three active ingredients, A, B and C:
(§4) • A=observed efficacy of active ingredient (combination of Metamifop and Imidazolinone herbicides) A at the same concentration as used in the mixture. • B=observed efficacy of active ingredient B at the same concentration as used in the mixture. • C=observed efficacy of active ingredient C at the same concentration as used in the mixture.
(§5) EFFICACY STUDY: The field experiments were carried out to test the synergy of the combination Metamifop, Imazethapyr, and Imazamox in India at various locations like in MP, Maharashtra, Karnataka, and Telangana on farmer's field against soybean weeds during Kharif season. The experiment comprising of 15 treatments including premixed binary and ternary combinations along with their stand-alone molecule using a randomized block design replicated thrice. All the treatments were applied as post-emergence foliar application when the weeds reached to two to four leaf stage. The spray was conducted with the help of Battery-operated Knapsack sprayer. The percentage efficacy was calculated after 14 and 21 days after application of herbicides.
(§6) The weeds present in the experimental fields were echinochloa conola, echinochloa crusgalli, brachiaria euriciformis, rottboellia cochinchinensis, cynodon dactylon, parthenium hyterophorus, digera arvensis, cynotis axillaris, acalypha indica, Commelina benghalensis, celosia argentia, cyperus spp.

Echinochloa crusgalli = assay: as above
Experimental: as §1, §2, §3, §4, §5, §6

Brachiaria eruciformis = assay: as above
Experimental: as §1, §2, §3, §4, §5, §6

Parthenium hysterophorus = assay: Field efficacy on broad leaf weed in soybean, post-emergence foliar application
Experimental: as §1, §2, §3, §4, §5, §6

Commelina benghalensis = assay: as above
Experimental: as §1, §2, §3, §4, §5, §6

Cyanotis axillaris = assay: as above
Experimental: as §1, §2, §3, §4, §5, §6

Soybean = assay: Phytotoxicity in Soybean, visual grading on 0-10 scale
Experimental: as §5
Phytotoxic effect of herbicidal combination of Metamifop, Imazethapyr and Imazamox in soyabean: Table 5, 10 show the visual observations and grading on phytotoxicity which was recorded for leaf injury on tip/surface, Epinasty/Hyponasty, and wilting etc. on 0-10 scale (as below) at 1, 3, 7, 14 and 21 days after application of the present herbicidal composition.

[2] = test system: hard to kill broad leaf weeds; assay: Field efficacy, summary on broad leaf weeds
Experimental: as §1, §5

[3] = 14 DAA, Imazethapyr 35 gm ai/ha
[4] = 14 DAA, Imazethapyr 40 gm ai/ha
[5] = 14 DAA, Imazethapyr 50 gm ai/ha
[6] = 14 DAA, Imazethapyr 75.375 gm ai/ha
[7] = 21 DAA, Imazethapyr 35 gm ai/ha
[8] = 21 DAA, Imazethapyr 40 gm ai/ha
[9] = 21 DAA, Imazethapyr 50 gm ai/ha
[10] = 21 DAA, Imazethapyr 75.375 gm ai/ha

Compound: C[C@@H](Oc1ccc(Oc2nc3ccc(Cl)cc3o2)cc1)C(=O)N(C)c1ccccc1F [Metamifop]
- % Weed control burn down symptoms generation Observed ([1]; 14 DAA, Metamifop 80 gm ai/ha): 67%
- % Weed control burn down symptoms generation Observed ([1]; 14 DAA, Metamifop 90 gm ai/ha): 70%
- % Weed control burn down symptoms generation Observed ([1]; 21 DAA, Metamifop 80 gm ai/ha): 70%
- % Weed control burn down symptoms generation Observed ([1]; 21 DAA, Metamifop 90 gm ai/ha): 72%
- % Weed control burn down symptoms generation Observed (Echinochloa crusgalli; 14 DAA, Metamifop 80 gm ai/ha): 80%
- % Weed control burn down symptoms generation Observed (Echinochloa crusgalli; 14 DAA, Metamifop 90 gm ai/ha): 83%
- % Weed control burn down symptoms generation Observed (Echinochloa crusgalli; 21 DAA, Metamifop 80 gm ai/ha): 74%
- % Weed control burn down symptoms generation Observed (Echinochloa crusgalli; 21 DAA, Metamifop 90 gm ai/ha): 77%
- % Weed control burn down symptoms generation Observed (Brachiaria eruciformis; 14 DAA, Metamifop 80 gm ai/ha): 84%
- % Weed control burn down symptoms generation Observed (Brachiaria eruciformis; 14 DAA, Metamifop 90 gm ai/ha): 88%
- % Weed control burn down symptoms generation Observed (Brachiaria eruciformis; 21 DAA, Metamifop 80 gm ai/ha): 78%
- % Weed control burn down symptoms generation Observed (Brachiaria eruciformis; 21 DAA, Metamifop 90 gm ai/ha): 81%
- % Weed control burn down symptoms generation Observed (Parthenium hysterophorus; 14 DAA, Metamifop 80 gm ai/ha): 0%
- % Weed control burn down symptoms generation Observed (Parthenium hysterophorus; 14 DAA, Metamifop 90 gm ai/ha): 0%
- % Weed control burn down symptoms generation Observed (Parthenium hysterophorus; 21 DAA, Metamifop 80 gm ai/ha): 0%
- % Weed control burn down symptoms generation Observed (Parthenium hysterophorus; 21 DAA, Metamifop 90 gm ai/ha): 0%
- % Weed control burn down symptoms generation Observed (Commelina benghalensis; 14 DAA, Metamifop 80 gm ai/ha): 0%
- % Weed control burn down symptoms generation Observed (Commelina benghalensis; 14 DAA, Metamifop 90 gm ai/ha): 0%
- % Weed control burn down symptoms generation Observed (Commelina benghalensis; 21 DAA, Metamifop 80 gm ai/ha): 0%
- % Weed control burn down symptoms generation Observed (Commelina benghalensis; 21 DAA, Metamifop 90 gm ai/ha): 0%
- % Weed control burn down symptoms generation Observed (Cyanotis axillaris; 14 DAA, Metamifop 80 gm ai/ha): 0%
- % Weed control burn down symptoms generation Observed (Cyanotis axillaris; 14 DAA, Metamifop 90 gm ai/ha): 0%
- % Weed control burn down symptoms generation Observed (Cyanotis axillaris; 21 DAA, Metamifop 80 gm ai/ha): 0%
- % Weed control burn down symptoms generation Observed (Cyanotis axillaris; 21 DAA, Metamifop 90 gm ai/ha): 0%
- Phytotoxicity score (Soybean; Soybean, 1 DAA, Metamifop 80 gm ai/ha): 0
- Phytotoxicity score (Soybean; Soybean, 1 DAA, Metamifop 90 gm ai/ha): 0
- Phytotoxicity score (Soybean; Soybean, 3 DAA, Metamifop 80 gm ai/ha): 0
- Phytotoxicity score (Soybean; Soybean, 3 DAA, Metamifop 90 gm ai/ha): 0
- Phytotoxicity score (Soybean; Soybean, 7 DAA, Metamifop 80 gm ai/ha): 0
- Phytotoxicity score (Soybean; Soybean, 7 DAA, Metamifop 90 gm ai/ha): 0
- Phytotoxicity score (Soybean; Soybean, 14 DAA, Metamifop 80 gm ai/ha): 0
- Phytotoxicity score (Soybean; Soybean, 14 DAA, Metamifop 90 gm ai/ha): 0
- Phytotoxicity score (Soybean; Soybean, 21 DAA, Metamifop 80 gm ai/ha): 0
- Phytotoxicity score (Soybean; Soybean, 21 DAA, Metamifop 90 gm ai/ha): 0
- Control on targeted weeds, applied alone ([2]; at 14 days): no or very less control
- Control on targeted weeds, applied alone ([2]; at 21 days): no or very less control

Compound: CCc1cnc(C2=NC(C)(C(C)C)C(=O)N2)c(C(=O)O)c1 (stereo not shown) [Imazethapyr]
- % Weed control burn down symptoms generation Observed [1, 3]: 0%
- % Weed control burn down symptoms generation Observed [1, 4]: 0%
- % Weed control burn down symptoms generation Observed [1, 5]: 25%
- % Weed control burn down symptoms generation Observed [1, 6]: 30%
- % Weed control burn down symptoms generation Observed [1, 7]: 0%
- % Weed control burn down symptoms generation Observed [1, 8]: 0%
- % Weed control burn down symptoms generation Observed [1, 9]: 0%
- % Weed control burn down symptoms generation Observed [1, 10]: 0%
- % Weed control burn down symptoms generation Observed (Echinochloa crusgalli; [3]): 15%
- % Weed control burn down symptoms generation Observed (Echinochloa crusgalli; [4]): 18%
- % Weed control burn down symptoms generation Observed (Echinochloa crusgalli; [5]): 18%
- % Weed control burn down symptoms generation Observed (Echinochloa crusgalli; [6]): 20%
- % Weed control burn down symptoms generation Observed (Echinochloa crusgalli; [7]): 8%
- % Weed control burn down symptoms generation Observed (Echinochloa crusgalli; [8]): 12%
- % Weed control burn down symptoms generation Observed (Echinochloa crusgalli; [9]): 16%
- % Weed control burn down symptoms generation Observed (Echinochloa crusgalli; [10]): 18%
- % Weed control burn down symptoms generation Observed (Brachiaria eruciformis; [3]): 8%
- % Weed control burn down symptoms generation Observed (Brachiaria eruciformis; [4]): 10%
- % Weed control burn down symptoms generation Observed (Brachiaria eruciformis; [5]): 20%
- % Weed control burn down symptoms generation Observed (Brachiaria eruciformis; [6]): 22%
- % Weed control burn down symptoms generation Observed (Brachiaria eruciformis; [7]): 0%
- % Weed control burn down symptoms generation Observed (Brachiaria eruciformis; [8]): 0%
- % Weed control burn down symptoms generation Observed (Brachiaria eruciformis; [9]): 0%
- % Weed control burn down symptoms generation Observed (Brachiaria eruciformis; [10]): 15%
- % Weed control burn down symptoms generation Observed (Parthenium hysterophorus; [3]): 0%
- % Weed control burn down symptoms generation Observed (Parthenium hysterophorus; [4]): 6%
- % Weed control burn down symptoms generation Observed (Parthenium hysterophorus; [5]): 11%
- % Weed control burn down symptoms generation Observed (Parthenium hysterophorus; [6]): 28%
- % Weed control burn down symptoms generation Observed (Parthenium hysterophorus; [7]): 0%
- % Weed control burn down symptoms generation Observed (Parthenium hysterophorus; [8]): 4%
- % Weed control burn down symptoms generation Observed (Parthenium hysterophorus; [9]): 6%
- % Weed control burn down symptoms generation Observed (Parthenium hysterophorus; [10]): 15%
- % Weed control burn down symptoms generation Observed (Commelina benghalensis; [3]): 6%
- % Weed control burn down symptoms generation Observed (Commelina benghalensis; [4]): 22%
- % Weed control burn down symptoms generation Observed (Commelina benghalensis; [5]): 35%
- % Weed control burn down symptoms generation Observed (Commelina benghalensis; [6]): 56%
- % Weed control burn down symptoms generation Observed (Commelina benghalensis; [7]): 0%
- % Weed control burn down symptoms generation Observed (Commelina benghalensis; [8]): 13%
- % Weed control burn down symptoms generation Observed (Commelina benghalensis; [9]): 20%
- % Weed control burn down symptoms generation Observed (Commelina benghalensis; [10]): 45%
- % Weed control burn down symptoms generation Observed (Cyanotis axillaris; [3]): 12%
- % Weed control burn down symptoms generation Observed (Cyanotis axillaris; [4]): 25%
- % Weed control burn down symptoms generation Observed (Cyanotis axillaris; [5]): 447%
- % Weed control burn down symptoms generation Observed (Cyanotis axillaris; [6]): 0%
- % Weed control burn down symptoms generation Observed (Cyanotis axillaris; [7]): 0%
- % Weed control burn down symptoms generation Observed (Cyanotis axillaris; [8]): 7%
- % Weed control burn down symptoms generation Observed (Cyanotis axillaris; [9]): 20%
- % Weed control burn down symptoms generation Observed (Cyanotis axillaris; [10]): 36%
- Phytotoxicity score (Soybean; soybean, in vivo, 1 days after application): 0
- Phytotoxicity score (Soybean; soybean, in vivo, 3 days after application): 0
- Phytotoxicity score (Soybean; soybean, in vivo, 7 days after application): 0
- Phytotoxicity score (Soybean; soybean, in vivo, 14 days after application): 0
- Phytotoxicity score (Soybean; soybean, in vivo, 21 days after application): 0
- Control on targeted weeds, applied alone ([2]; at 14 days): no or very less control
- Control on targeted weeds, applied alone ([2]; at 21 days): no or very less control
